Where a name gives a salt, the structure may show the parent alone.
Assays:
[1] = tested on: isolated spontaneously beating right atrium; assay: Spontaneously beating right atrium, organ bath; type: cell-based, guinea-pig; conditions: atropine 1 μM; 7-nitroindazole 100 μM
Method: (§1) Organ bath experiments and tissue procurement. Guinea-pigs were killed by a blow on the head. Their hearts were quickly excised and trimmed of excess tissues. The atrium was carefully removed and placed at room temperature (20˜25° C.) in a Krebs solution of the following composition (mM): NaCl 113, KCl 4.8, CaCl2 2.2, KH2PO4 1.2, MgCl2 1.2, NaHCO3 25, dextrose 11.0; bubbled with a 95% O2+5% CO2 mixture, followed by separation of right and left atrium for subsequent experiments.
Spontaneously beating right atrium was dissected from the heart and mounted in a 10 ml organ bath with one end fixed and the other end connected to a force displacement transducer (Grass, Model FT03). The frequency of contraction was measured on a separate channel by a tachometer (Coulbourn, Model S77-26) connected to a high-speed videograph (Coulbourn, AT L19-69). These experiments were carried out at 32.5° C. in Krebs solution. The atria strip was pre-stretched to a baseline tension of 0.5 g and equilibrated for 90 min in aerated (95% O2+5% CO2) Krebs solution before the experimental protocols were initiated. The atria were then allowed a 30-60 min washout period to re-stabilize. KMUP-3 or KMUP-3 amine salt (0.1, 1.0, 10, 100 μM) were then cumulatively added to the organ bath. […]

[2] = tested on: electrically-stimulated left atria; assay: Electrically-stimulated beating left atrium, organ bath; type: cell-based, guinea-pig; conditions: for Effect of pretreatment on KMUP-3-induced contractility: sGC inhibitor ODQ, eNOS inhibitor L-NAME
Method: as §1
Quiescent left atria free of connective tissues were dissected and mounted in an organ bath under a resting tension of 0.5 g. Organs were bathed at 32.5° C. in aerated Krebs solution and electrically stimulated with 1 Hz at […] via two platinum electrodes placed at either side. The positive inotropic effect was measured by determining the cumulative concentration-response curves in the presence of KMUP-3 or KMUP-3 amine salt (0.1, 1.0, 10, 100 μM). To examine the possible involvement of NO and cAMP/cGMP in the action of KMUP-3 or KMUP-3 amine salt on electrically-stimulated beating atria, pre-incubated with a ROCK inhibitor Y27632 (1.0 μM), a β-adrenoceptor blocker propranolol (1.0 μM), eNOS inhibitors L-NAME (100 μM), 7-nitroindazole (100 μM) and 5-HT inhibitor ketanserin (1.0 μM) was performed for 15 min prior to the addition of KMUP-3 or KMUP-3 amine salt to measure the development of beating force and heart rate for 10 min.

eNOS [3] = assay: Protein expression of eNOS by optical density after KMUPs salts (Table 2); type: cell-based; conditions: KMUPs salts 10 μM, 120 min; vehicle (without treatment) = 100 %
Method: (§2) Protein extraction and Western blotting analysis. Briefly, after incubation with test agents in an organ bath, isolated beating atrium was frozen and pulverized to a fine powder at the temperature of liquid nitrogen. Atrium powders were then homogenized in protein extraction reagent (Pierce Biotechnology, Inc., Rockford, Ill.) by sonication. The samples were sonicated 10 sec three times and centrifuged at 13,000 rpm at 4° C. for 30 min. The protein concentrations of supernatants were determined by using bovine serum albumin as the standard. The cell extracts were then boiled in a ratio of 4:1 with sample buffer (Tris 100 mM, pH 6.8; glycerol 20%, Sodium dodecyl sulfate (SDS) 4% and bromophenol blue 0.2%). Electrophoresis was performed using 10% SDS-PAGE and transferred to nitrocellulose membranes (Millipore Corp., Billerica, Mass.). The membrane was blocked with Tris-buffered saline (TBS; 20 mM Tris and 137 mM NaCl, pH 7.6) containing 0.1% Tween 20 (TTBS) and 5% nonfat milk at room temperature for 1 h, washed with TTBS, and then incubated overnight at 4° C. in the appropriate primary antibody for PKARI, RhoA, ROCKII, p-CIP-17, CPI-17 and PKG1α1β. […] The intensity of the bands was measured by densitometry. eNOS or phosphorylated eNOS were extracted from cell culture of neonatal myocytes, PA ring and aortic ring (2-3 mm) of rats and measured by Western blotting analysis.

PDE-3 = assay: Protein expression of PDE-3 by optical density after KMUPs salts (Table 2); type: cell-based; conditions: KMUPs salts 10 μM, 120 min; vehicle (without treatment) = 100 %
Method: as §2

PDE-4 = assay: Protein expression of PDE-4 by optical density after KMUPs salts (Table 2); type: cell-based; conditions: KMUPs salts 10 μM, 120 min; vehicle (without treatment) = 100 %
Method: as §2

PDE-5 = assay: Protein expression of PDE-5 by optical density after KMUPs salts (Table 2); type: cell-based; conditions: KMUPs salts 10 μM, 120 min; vehicle (without treatment) = 100 %
Method: as §2

ROCKII = assay: Protein expression of ROCKII by optical density after KMUPs salts (Table 2); type: cell-based; conditions: KMUPs salts 10 μM, 120 min; vehicle (without treatment) = 100 %
Method: as §2

L-type Ca2+ channels = assay: Ca2+ entry currents in H9c2 cells, whole cell patch-clamp; type: cell-based, rat; conditions: KMUP-3 10 μM with KT5823 3 μM or Y27642 50 μM
From the text: To measure the ICa through L-type Ca^2+ channels, whole cell patch-clamp electrophysiology was used in rat heart-derived H9c2 cells as previously described. In brief, H9c2 cells were placed in a recording dish and perfused with a bath solution containing (in mM): 135 tetraethylammonium (TEA)-Cl, 1.8 CaCl2, 2 MgCl2, 10 glucose, and 10 HEPES (pH 7.4, Tris). […] Negative pressure was briefly applied to rupture the membrane and a gigaohm seal was obtained.
H9c2 cells were clamped at −80 mV with step depolarizations (300 ms) from −80 to 0 mV to evoke whole-cell ICa. Voltage clamped cells were equilibrated for 15 min prior to experimentation. Membrane currents were recorded on an Axopatch 700A amplifier (Axon Instruments, Union City, Calif.), filtered at 1 kHz using a low-pass Bessel filter, digitized at 5 kHz and stored on a computer for subsequent analysis with Clampfit 9.0. Following equilibration, ICa was monitored in the presence and absence of KMUP-3 or KMUP-3 amine salt (1, 10, 100 μM). To ascertain whether PKG or ROCK signaling was involved in the KMUP-3-induced decreases in ICa, H9c2 cells were incubated for 15 min with the combination of KMUP-3 or KMUP-3 amine salt (10 μM) and PKG antagonist KT5823 (3 μM) or ROCK inhibitor Y-27632 (50 μM). All electrical recordings were performed at room temperature.

PKG = PKG expression in beating left atrium, Western blotting; type: cell-based, guinea-pig; conditions: L-NAME pretreatment
Method: as §2, with “Mass.).” for “Mass.). The membrane was blocked with Tris-buffered saline (TBS; 20 mM Tris and 137 mM NaCl, pH 7.6) containing 0.1% Tween 20 (TTBS) and 5% nonfat milk at room temperature for 1 h, washed with TTBS, and then incubated overnight at 4° C. in the appropriate primary antibody for PKARI, RhoA, ROCKII, p-CIP-17, CPI-17 and PKG1α1β.”
PK, ROCKII and CIP-17 expression and pretreatment of beating left atrium. To examine whether KMUP-3 or KMUP-3 amine salt affects the protein expression in beating atrium, PKA, ROCKII, PKG and phosphorylated CIP-17 was determined by Western blotting, respectively. […]

eNOS [4] = assay: eNOS expression in neonatal myocytes, Western blotting; type: cell-based, rat; conditions: L-NAME 100 μM pretreatment
Method: (§3) eNOS/p-NOS and cAMP/cGMP in neonatal myocytes. To determine the role of the NO/cGMP-pathway in heart, neonatal rat myocyte protein was extracted followed by Western blotting to measure the expression of eNOS, phosphorylated eNOS (p-eNOS), cAMP, and cGMP (FIG. 14 A-14 B and FIG. 15 A-15 B). KMUP-3 increased eNOS and p-eNOS in neonatal rat cardiomyocytes and the effect was reduced by L-NAME (100 μM)-pretreatment (FIG. 14A and FIG. 14B). KMUP-3 increased both cAMP and cGMP.
(§4) Protein extraction and Western blotting analysis. Briefly, after incubation with test agents in an organ bath, isolated beating atrium was frozen and pulverized to a fine powder at the temperature of liquid nitrogen. Atrium powders were then homogenized in protein extraction reagent (Pierce Biotechnology, Inc., Rockford, Ill.) by sonication. The samples were sonicated 10 sec three times and centrifuged at 13,000 rpm at 4° C. for 30 min. The protein concentrations of supernatants were determined by using bovine serum albumin as the standard. […] The intensity of the bands was measured by densitometry. eNOS or phosphorylated eNOS were extracted from cell culture of neonatal myocytes, PA ring and aortic ring (2-3 mm) of rats and measured by Western blotting analysis.

[5] = tested on: phosphorylated eNOS (p-eNOS); assay: Phosphorylated eNOS expression in neonatal myocytes, Western blotting; type: cell-based, rat; conditions: L-NAME 100 μM pretreatment
Method: as §3, §4

O=[N+]([O-])c1cccc2cn[nH]c12 [7-nitroindazole]
Effect of pretreatment on the beating frequency decreased by KMUP-3 [1]: up-regulated
Effect of combination on left atria contractility increased by KMUP-3 ([2]; KMUP-3 10 μM with 7-nitroindazole 100 μM): reduced

Cn1c(=O)c2c(ncn2CCN2CCN(c3ccc([N+](=O)[O-])cc3)CC2)n(C)c1=O [KMUP-3-HCl]
eNOS protein expression, optical density (%) (eNOS [3]): 138 ± 5.2%
PDE-3 protein expression, optical density (%) (PDE-3): 55 ± 2.5%
PDE-4 protein expression, optical density (%) (PDE-4): 48 ± 2.1%
PDE-5 protein expression, optical density (%) (PDE-5): 48 ± 1.9%
ROCKII protein expression, optical density (%) (ROCKII): 42 ± 2.2%

COC(=O)[C@@]1(OC)C[C@H]2O[C@]1(C)n1c3ccccc3c3c4c(c5c6ccccc6n2c5c31)C(=O)N(C)C4 [KT5823]
Effect of combination on currents reduced by KMUP-3 (L-type Ca2+ channels): restored

COC(=O)[C@@H](N)CCCNC(=N)N[N+](=O)[O-] [L-NAME]
Effect of pretreatment on KMUP-3-induced positive inotropic activity ([2]; propranolol and Y27632 1 μM, C3 exoenzyme 50 μg/mL, ketanserin 1.0 μM, L-NAME 100 μM): reduced
Effect of pretreatment on KMUP-3-induced contractility [2]: inhibited
Effect of pretreatment on expression of PKG (PKG): reduced
Effect of pretreatment on KMUP-3-increased eNOS (eNOS [4]): reduced
Effect of pretreatment on KMUP-3-increased p-eNOS [5]: reduced

O=c1onc2cnc3ccccc3n12 [ODQ]
Effect of pretreatment on KMUP-3-induced contractility [2]: inhibited

From patent publication US20120321584A1, “PROCESSES FOR PREPARING AMINE SALTS OF KMUP-3 AND USE THEREOF” (KAOHSIUNG MEDICAL UNIVERSITY, priority 2011, published 2012)
